# From ChEMBL document CHEMBL5230150, “Antiviral fungal metabolites and some insights into their contribution to the current COVID-19 pandemic” (Bioorg Med Chem, 2021)
# Square brackets hold non-standard residues; d marks the D form. Peptide text beside a SMILES is read from it. * marks the point of attachment. Pro(4R-Me) = C[C@H]1CN[C@H](C(=O)O)C1; Oleoyl = CCCCCCCC/C=C\CCCCCCCC(=O)*; hSer = N[C@@H](CCO)C(=O)O
# Experiments:
# Zika virus [1] = assay: Antiviral activity against ZIKV Z16019 infected in A549 cells assessed as inhibition in viral replication at MOI of 1 incubated for 1 hr by plaque assay; assay type: functional, organism-based; conditions: Z16019, A549, 1 h
# Influenza A virus [2] = assay: Antiviral activity against Influenza A virus H1N1 subtype infected in MDCK cells assessed as inhibition of viral replication incubated for 48 hrs by CPE inhibition assay; assay type: functional, organism-based
# Influenza A virus [3] = assay: Antiviral activity against Influenza A virus H3N2 subtype infected in MDCK cells assessed as inhibition of viral replication incubated for 48 hrs by CPE inhibition assay; assay type: functional, organism-based
# Influenza A virus [4] = assay: Antiviral activity against Influenza A virus A/Puerto Rico/8/34(H1N1) strain infected in MDCK cells assessed as inhibition of viral infection incubated for 60 mins by CPE inhibition assay; assay type: functional, organism-based; conditions: 1 h
# Hepatitis C virus = assay: Antiviral activity against HCV J8CC; assay type: functional, organism-based, Hepacivirus hominis
# dengue virus type 2 [5] = assay: Antiviral activity against DENV2 assessed as inhibition of viral replication by DENV RNA-dependent RNA polymerase assay; assay type: functional, organism-based
# dengue virus type 2 [6] = assay: Antiviral activity against DENV2 16681 infected in HEK293T/17 cells assessed as reduction in viral replication at MOI of 1 to 10 incubated for 24 hrs by standard plaque assay; assay type: functional, organism-based; conditions: Dengue virus, 16681, HEK293T/17, 24 h
# [7] = test system: Human immunodeficiency virus 1; assay: Antiviral activity against HIV-1 infected in SUP-T1 cells assessed as inhibition of viral replication at MOI of 1 treated for 48 hrs by luciferase assay; assay type: functional, organism-based; conditions: Human immunodeficiency virus 1, SUP-T1, 48 h
# Influenza A virus [8] = assay: Antiviral activity against Influenza A virus A/Puerto Rico/8/34(H1N1) strain infected in MDCK cells assessed as inhibition of viral infection by CPE inhibition assay; assay type: functional, organism-based
# Zika virus [9] = assay: Antiviral activity against ZIKV infected in A549 cells assessed as viral replication inhibition; assay type: functional, organism-based
# dengue virus type 2 [10] = assay: Antiviral activity against DENV2 00st-22A infected in Vero cells assessed as reduction in viral replication at MOI of 0.5 incubated for 48 hrs by focus-forming assay; assay type: functional, organism-based
structure (smiles),measurement,setting,value
O=C(C(=O)c1c[nH]c2ccccc12)c1c[nH]c2ccccc12,EC50,Zika virus [1],4.2 µM
CC[C@H]1O[C@@H]2O[C@H](/C=C/C=C/C=C/c3oc(=O)cc(OC/C=C(\C)C(=O)OC)c3C)[C@H](O)[C@]2(C)[C@@]1(C)O,EC50,Influenza A virus [2],3.5 µM
same,EC50,Influenza A virus [3],6.2 µM
COC(=O)/C(C)=C/COc1cc(=O)oc(/C=C/C=C/C=C/[C@H]2O[C@H]3O[C@H](C)[C@](C)(O)[C@@]3(C)[C@H]2O)c1C,EC50,Influenza A virus [3],8.9 µM
COc1cc(O)c2c(c1)C(=O)C1=C(C2=O)[C@H](O)[C@@H](O)[C@@](C)(O)C1,IC50,Influenza A virus [4],8.35 µg/mL
CC[C@@H]1N[C@@H]2N(C1=O)c1ccccc1[C@@]2(O)C[C@@H]1C(=O)NC(=C(C)C)c2nc3ccccc3c(=O)n21,EC50,Hepatitis C virus,129 µM
CC(=O)OC/C=C(\C)[C@@H]1C(C)=C[C@@H]2CC[C@H](O)[C@H](C)[C@H]2[C@@H]1/C=C/C=C/C(=O)O,IC50,dengue virus type 2 [5],13.6 µM
C/C=C(\C)[C@@H]1C(C)=C[C@@H]2CC(=O)C[C@H](C)[C@H]2[C@@H]1/C=C/C=C/C(=O)O,IC50,dengue virus type 2 [5],11.8 µM
CC1(C)C(=O)N2c3ccccc3[C@@]3(C[C@H]4n5c(nc6ccccc6c5=O)C(=O)C(C)(C)[C@@]4(O)O3)[C@@H]2N1S(C)(=O)=O,EC50,Hepatitis C virus,110 µM
CC(C)[C@@H]1NC(=O)[C@@H](C[C@@]2(O)c3ccccc3N3C(=O)C(C)(C)N[C@@H]32)n2c1nc1ccccc1c2=O,EC50,dengue virus type 2 [6],4.73 µM
CC[C@H](C)[C@@H](O)C(=O)[C@H]1C2=COC(C)=CC2=CC(=O)[C@@]1(C)O,IC50,[7],0.5 µM
COc1cccc2oc3cc(C)c(O)c(CO)c3c(=O)c12,IC50,Influenza A virus [8],4.7 µM
C=C(CC[C@@H](C)[C@H]1CC=C2C3=C(CC[C@@]21C)[C@@]1(C)CC[C@H](O)C[C@@H]1CC3=O)C(C)C,IC50,[7],3.5 µM
COc1ccc2oc3cc(C)c(O)c(CO)c3c(=O)c2c1OC,IC50,Influenza A virus [8],2.17 µM
C=C(C)C#CC1=C[C@@H]2O[C@@H](C(C)(C)O)C[C@]23O[C@@H]3[C@H]1O,IC50,[7],16.1 µM
C[C@]1(O)CC2=C(C(=O)c3c(O)cc(O)cc3C2=O)[C@H](O)[C@H]1O,IC50,Influenza A virus [4],2.59 µg/mL
C=C1CCC[C@]2(C)[C@H]3COC(=O)[C@H]3CC[C@@]12O,IC50,Influenza A virus [8],2.96 µg/mL
CCCCCCCC/C=C\CCCCCCCC(=O)N[C@H](C(=O)N1C[C@H](C)C[C@H]1C(=O)N[C@H](C(=O)N[C@@H](CCOC(C)=O)C(=O)N[C@@H](C)C=O)C(C)C)[C@@H](C)O (Oleoyl-T[Pro(4R-Me)]V[hSer](Ac)A-aldehyde),EC50,Zika virus [1],5 µM
same,IC50,Zika virus [9],0.15 µM
COc1cc(O)c2c(c1)C(=O)C1=C(C[C@@H](O)[C@@](C)(O)C1)C2=O [ALTERSOLANOL B],IC50,Influenza A virus [4],7.82 µg/mL
C[C@H]1CCC/C=C/[C@@H]2C[C@H](O)C[C@H]2[C@H](O)/C=C/C(=O)O1 [BREFELDIN A],IC50,dengue virus type 2 [10],0.0546 µM
CC[C@H](C)C(=O)[C@H]1C(=O)O[C@@]2(C)C(=O)C=C3C=C(C)OC=C3[C@H]12 [CHERMESINONE B],IC50,Influenza A virus [4],0.8 µg/mL
